In article PMC10441804, “Insect fungal pathogens secrete a cell wall-associated glucanase that acts to help avoid recognition by the host immune system” (PLOS Pathogens, 2023):

Target: T1, BbEng1 (Beauveria bassiana, UniProt J4W7P1)
T1 construct: gene BBA_04753; full precursor 588 aa, 21-residue signal peptide removed; GH16 domain 22-343; expressed in Pichia pastoris GS115 (pPIC9K), purified, detected by anti-His tag
Test: glucose release, glucose oxidase method
Format: biochemical
Conditions: pH 6.0 (50 mM sodium acetate buffer), 37 °C, 1 h

T1 sequence (J4W7P1 entry or part of it): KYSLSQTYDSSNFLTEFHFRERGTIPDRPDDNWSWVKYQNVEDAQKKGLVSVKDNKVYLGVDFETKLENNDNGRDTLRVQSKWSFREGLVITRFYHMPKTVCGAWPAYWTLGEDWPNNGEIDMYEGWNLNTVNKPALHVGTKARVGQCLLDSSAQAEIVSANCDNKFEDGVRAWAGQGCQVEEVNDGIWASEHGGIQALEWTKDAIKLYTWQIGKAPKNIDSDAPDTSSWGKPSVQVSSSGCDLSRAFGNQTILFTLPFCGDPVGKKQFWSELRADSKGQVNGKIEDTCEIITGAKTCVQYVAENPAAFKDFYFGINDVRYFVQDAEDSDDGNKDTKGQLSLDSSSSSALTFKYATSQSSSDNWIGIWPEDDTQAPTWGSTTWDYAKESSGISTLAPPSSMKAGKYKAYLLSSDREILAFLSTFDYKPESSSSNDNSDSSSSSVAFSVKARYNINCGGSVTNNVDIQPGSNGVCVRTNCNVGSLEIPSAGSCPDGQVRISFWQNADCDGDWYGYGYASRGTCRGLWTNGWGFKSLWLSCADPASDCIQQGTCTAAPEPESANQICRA

For `OC[C@H]1O[C@@H](O[C@@H]2[C@@H](O)[C@H](O[C@@H]3[C@@H](O)[C@H](O[C@H]4[C@H](O)[C@@H](CO)OC(O)[C@@H]4O)O[C@H](CO)[C@H]3O)O[C@H](CO)[C@H]2O)[C@H](O)[C@@H](O)[C@@H]1O` (stereo partly shown) [laminaritetraose], the “glucose release, glucose oxidase method” value was “Measurement of glucanase activity indicated release of reducing sugar from laminaritetraose (β-1,3-glucose)”.
